Test system: MV-4-11 cells
Assay: Gene expression microarray analysis (Affymetrix PrimeView) and GSEA
Type: cell-based, human
Design: RFU PODN (11730768_x_at) / Fold change /veh PODN (11730768_x_at) / RFU LINC00158 (11744669_a_at) / Fold change /veh LINC00158 (11744669_a_at) / RFU DUSP10 (11751237_a_at) / Fold change /veh DUSP10 (11751237_a_at) / RFU ID3 (11757404_x_at) / Fold change /veh ID3 (11757404_x_at) / RFU PLEKHG5 (11737974_s_at) / Fold change /veh PLEKHG5 (11737974_s_at) / RFU LRRC4B (11730491_at) / Fold change /veh LRRC4B (11730491_at) / RFU GIMAP4 (11747438_a_at) / Fold change /veh GIMAP4 (11747438_a_at) / RFU KRT8 (11758183_x_at) / Fold change /veh KRT8 (11758183_x_at) / RFU CNN1 (11734310_a_at) / Fold change /veh CNN1 (11734310_a_at) / RFU VPS37D (11726825_at) / Fold change /veh VPS37D (11726825_at) / RFU C10orf10 (11716522_x_at) / Fold change /veh C10orf10 (11716522_x_at) / RFU KIR2DL2 /// KIR2DL4 /// KIR2DL5A /// KIR2DL5B /// KIR2DS1 /// KIR2DS2 /// KIR2DS3 /// KIR2DS4 /// KIR3DL3 /// KIR3DL3 /// KIR3DS1 (11738374_at) / Fold change /veh KIR2DL2 /// KIR2DL4 /// KIR2DL5A /// KIR2DL5B /// KIR2DS1 /// KIR2DS2 /// KIR2DS3 /// KIR2DS4 /// KIR3DL3 /// KIR3DL3 /// KIR3DS1 (11738374_at) / RFU C1QL1 (11718748_at) / Fold change /veh C1QL1 (11718748_at) / RFU TMPRSS4 (11747572_a_at) / Fold change /veh TMPRSS4 (11747572_a_at) / RFU HAMP (11756126_x_at) / Fold change /veh HAMP (11756126_x_at) / RFU RNFT2 (11725882_a_at) / Fold change /veh RNFT2 (11725882_a_at) / RFU NR4A2 (11747474_a_at) / Fold change /veh NR4A2 (11747474_a_at) / RFU ABCC12 (11746883_a_at) / Fold change /veh ABCC12 (11746883_a_at) / RFU TMEM136 (11760407_x_at) / Fold change /veh TMEM136 (11760407_x_at) / RFU CLDN22 /// WWC2 (11732394_at) / Fold change /veh CLDN22 /// WWC2 (11732394_at) / RFU HLA-DPB1 (11760878_x_at) / Fold change /veh HLA-DPB1 (11760878_x_at) / RFU SPINT1 (11716480_a_at) / Fold change /veh SPINT1 (11716480_a_at) / RFU GAP43 (11754022_s_at) / Fold change /veh GAP43 (11754022_s_at) / RFU A4GNT (11735810_at) / Fold change /veh A4GNT (11735810_at) / RFU PRB3 (11715151_x_at) / Fold change /veh PRB3 (11715151_x_at) / RFU TUBB4B (11761932_at) / Fold change /veh TUBB4B (11761932_at) / RFU CAPN14 (11732068_a_at) / Fold change /veh CAPN14 (11732068_a_at) / RFU TMCC2 (11721928_a_at) / Fold change /veh TMCC2 (11721928_a_at) / RFU IRGQ (11745062_a_at) / Fold change /veh IRGQ (11745062_a_at) / RFU FAM174B (11720279_a_at) / Fold change /veh FAM174B (11720279_a_at) / RFU TMPRSS4 (11748680_a_at) / Fold change /veh TMPRSS4 (11748680_a_at) / RFU FAM212B (11763350_a_at) / Fold change /veh FAM212B (11763350_a_at) / RFU PLEKHG5 (11743358_a_at) / Fold change /veh PLEKHG5 (11743358_a_at) / RFU ZSCAN30 (11745921_a_at) / Fold change /veh ZSCAN30 (11745921_a_at) / RFU CMKLR1 (11741424_a_at) / Fold change /veh CMKLR1 (11741424_a_at) / RFU LOC101060620 /// MAPK8IP1 (11723275_at) / Fold change /veh LOC101060620 /// MAPK8IP1 (11723275_at) / RFU SPTSSB (11747773_x_at) / Fold change /veh SPTSSB (11747773_x_at) / RFU PRSS12 (11739890_at) / Fold change /veh PRSS12 (11739890_at) / RFU BIN1 (11741810_x_at) / Fold change /veh BIN1 (11741810_x_at) / RFU WNT11 (11732464_a_at) / Fold change /veh WNT11 (11732464_a_at) / RFU C10orf10 (11716521_a_at) / Fold change /veh C10orf10 (11716521_a_at) / RFU C5orf56 (11738089_at) / Fold change /veh C5orf56 (11738089_at) / RFU CYB561 (11721691_x_at) / Fold change /veh CYB561 (11721691_x_at) / RFU ANKRD19P (11752326_a_at) / Fold change /veh ANKRD19P (11752326_a_at) / RFU OR2T12 /// OR2T33 /// OR2T8 (11738714_s_at) / Fold change /veh OR2T12 /// OR2T33 /// OR2T8 (11738714_s_at) / RFU VCAN (11748164_a_at) / Fold change /veh VCAN (11748164_a_at) / RFU JSRP1 (11732532_at) / Fold change /veh JSRP1 (11732532_at) / RFU KRTAP10-11 (11738290_x_at) / Fold change /veh KRTAP10-11 (11738290_x_at) / RFU MYO3A (11730013_a_at) / Fold change /veh MYO3A (11730013_a_at) / RFU EBF3 (11725865_a_at) / Fold change /veh EBF3 (11725865_a_at) / RFU CAMK2N1 (11719241_x_at) / Fold change /veh CAMK2N1 (11719241_x_at) / RFU C5orf56 (11738088_a_at) / Fold change /veh C5orf56 (11738088_a_at) / RFU OLFML3 (11715873_a_at) / Fold change /veh OLFML3 (11715873_a_at) / RFU LOC100653217 /// NTM (11731650_a_at) / Fold change /veh LOC100653217 /// NTM (11731650_a_at) / RFU MAPK11 (11762145_a_at) / Fold change /veh MAPK11 (11762145_a_at) / RFU FIZ1 (11724087_x_at) / Fold change /veh FIZ1 (11724087_x_at) / RFU OASL (11726364_x_at) / Fold change /veh OASL (11726364_x_at) / RFU SOX15 (11748057_x_at) / Fold change /veh SOX15 (11748057_x_at) / RFU CD79A (11719716_a_at) / Fold change /veh CD79A (11719716_a_at) / RFU HIST1H1D (11736915_at) / Fold change /veh HIST1H1D (11736915_at) / RFU CASKIN2 (11723855_a_at) / Fold change /veh CASKIN2 (11723855_a_at) / RFU LOC730098 (11760151_x_at) / Fold change /veh LOC730098 (11760151_x_at) / RFU OR4N2 (11742367_at) / Fold change /veh OR4N2 (11742367_at) / RFU PRRT2 (11749266_a_at) / Fold change /veh PRRT2 (11749266_a_at) / RFU SNX32 (11753110_a_at) / Fold change /veh SNX32 (11753110_a_at) / RFU CDHR5 (11726645_a_at) / Fold change /veh CDHR5 (11726645_a_at) / RFU RCAN1 (11760418_a_at) / Fold change /veh RCAN1 (11760418_a_at) / RFU FAM167A (11723789_a_at) / Fold change /veh FAM167A (11723789_a_at) / RFU FAM26E (11764081_at) / Fold change /veh FAM26E (11764081_at) / RFU ISYNA1 (11749810_s_at) / Fold change /veh ISYNA1 (11749810_s_at) / RFU ACY1 (11761880_at) / Fold change /veh ACY1 (11761880_at) / RFU 11764098_at / Fold change /veh 11764098_at / RFU SAMD14 (11745864_x_at) / Fold change /veh SAMD14 (11745864_x_at) / RFU NPB (11741838_a_at) / Fold change /veh NPB (11741838_a_at) / RFU TMPRSS6 (11731388_a_at) / Fold change /veh TMPRSS6 (11731388_a_at) / RFU KRTAP10-2 (11738614_at) / Fold change /veh KRTAP10-2 (11738614_at) / RFU ARHGAP8 /// PRR5-ARHGAP8 (11727945_x_at) / Fold change /veh ARHGAP8 /// PRR5-ARHGAP8 (11727945_x_at) / RFU KRTAP5-7 /// NADSYN1 (11734609_at) / Fold change /veh KRTAP5-7 /// NADSYN1 (11734609_at) / RFU RASL12 (11751679_a_at) / Fold change /veh RASL12 (11751679_a_at) / RFU CDKN2B (11736163_a_at) / Fold change /veh CDKN2B (11736163_a_at) / RFU PRF1 (11729649_at) / Fold change /veh PRF1 (11729649_at) / RFU, ZNF638 /// ZNF638-IT1 / Fold change vs veh, ZNF638 /// ZNF638-IT1 / RFU, PANK3 / Fold change vs veh, PANK3 / RFU, SH3YL1 / Fold change vs veh, SH3YL1 / RFU, ZEB2 / Fold change vs veh, ZEB2 / RFU, NRIP1 / Fold change vs veh, NRIP1 / RFU, PTTG1IP / Fold change vs veh, PTTG1IP / RFU, CAPN2 / Fold change vs veh, CAPN2 / RFU, MED14 / Fold change vs veh, MED14 / RFU, SNORA58 / Fold change vs veh, SNORA58 / RFU, C1orf63 / Fold change vs veh, C1orf63 / RFU, LRRFIP1 / Fold change vs veh, LRRFIP1 / RFU, NDUFAF7 / Fold change vs veh, NDUFAF7 / RFU, SLC12A2 / Fold change vs veh, SLC12A2 / RFU, IBTK / Fold change vs veh, IBTK / RFU, ESF1 / Fold change vs veh, ESF1 / Fold change vs veh, TMEM50B / RFU, TAOK1 / Fold change vs veh, TAOK1 / RFU, ACBD3 / Fold change vs veh, ACBD3 / RFU, TMA16 / Fold change vs veh, TMA16 / RFU, RWDD3 / Fold change vs veh, RWDD3 / RFU, BCAT1 / Fold change vs veh, BCAT1 / RFU, EDEM3 / Fold change vs veh, EDEM3 / RFU, TMEM33 / Fold change vs veh, TMEM33 / RFU, WDR75 / Fold change vs veh, WDR75 / RFU, AHCTF1 / Fold change vs veh, AHCTF1 / RFU, TFRC / Fold change vs veh, TFRC / RFU, ZDHHC17 / Fold change vs veh, ZDHHC17 / RFU, NOM1 / Fold change vs veh, NOM1 / RFU, ARL8B / Fold change vs veh, ARL8B / RFU, ZBTB11 / Fold change vs veh, ZBTB11 / RFU, TAMM41 / Fold change vs veh, TAMM41 / RFU, KIAA1704 /// LOC100996395 / Fold change vs veh, KIAA1704 /// LOC100996395 / RFU, ING1 / Fold change vs veh, ING1 / RFU, TRMT61B / Fold change vs veh, TRMT61B / RFU, FUBP3 / Fold change vs veh, FUBP3 / RFU, TP53 / Fold change vs veh, TP53 / RFU, TNKS2 / Fold change vs veh, TNKS2 / RFU, ZFP14 / Fold change vs veh, ZFP14 / RFU, ACTR2 / Fold change vs veh, ACTR2 / RFU, PPP3R1 / Fold change vs veh, PPP3R1 / RFU, PIK3R1 / Fold change vs veh, PIK3R1 / RFU, HNRNPA1 / Fold change vs veh, HNRNPA1 / RFU, RNF170 / Fold change vs veh, RNF170 / RFU, ZNF28 / Fold change vs veh, ZNF28 / RFU, RNGTT / Fold change vs veh, RNGTT / RFU, OGT / Fold change vs veh, OGT / RFU, BRD1 / Fold change vs veh, BRD1 / RFU, MARS / Fold change vs veh, MARS / RFU, ZNF655 / Fold change vs veh, ZNF655 / RFU, FAHD1 / Fold change vs veh, FAHD1 / RFU, BDP1 / Fold change vs veh, BDP1 / RFU, LRRCC1 / Fold change vs veh, LRRCC1 / RFU, ARID1A / Fold change vs veh, ARID1A / RFU, ZNF146 / Fold change vs veh, ZNF146 / RFU, ZNF330 / Fold change vs veh, ZNF330 / RFU, GPN3 / Fold change vs veh, GPN3 / RFU, C9orf123 / Fold change vs veh, C9orf123 / RFU, N4BP2L2 / Fold change vs veh, N4BP2L2 / RFU, ARFIP1 / Fold change vs veh, ARFIP1 / RFU, FAM179B / Fold change vs veh, FAM179B / RFU, BCL10 / Fold change vs veh, BCL10 / RFU, UHRF1BP1L / Fold change vs veh, UHRF1BP1L / RFU, BET1 / Fold change vs veh, BET1 / RFU, CNOT2 / Fold change vs veh, CNOT2 / RFU, ZNF268 / Fold change vs veh, ZNF268 / Fold change vs veh, ZNF507 / RFU, DGCR2 / Fold change vs veh, DGCR2 / RFU, WDSUB1 / Fold change vs veh, WDSUB1 / Fold change vs veh, HSP90B1 /// MIR3652 / RFU, ADSS / Fold change vs veh, ADSS / RFU, GK / Fold change vs veh, GK / RFU, ZNF148 / Fold change vs veh, ZNF148 / RFU, TAF9 / Fold change vs veh, TAF9 / RFU, SLC1A5 / Fold change vs veh, SLC1A5 / RFU, SLMO2 / Fold change vs veh, SLMO2 / RFU, ABCC4 / Fold change vs veh, ABCC4 / RFU, LOC101060439 /// RAP1B / Fold change vs veh, LOC101060439 /// RAP1B / RFU, RFX7 / Fold change vs veh, RFX7 / RFU, GTPBP10 / Fold change vs veh, GTPBP10 / RFU, CNEP1R1 / Fold change vs veh, CNEP1R1 / RFU, BIVM-ERCC5 /// ERCC5 / Fold change vs veh, BIVM-ERCC5 /// ERCC5 / RFU, ILF3 / Fold change vs veh, ILF3 / RFU 11762660_at / Fold change /veh 11762660_at / RFU VCAN (11757783_s_at) / Fold change /veh VCAN (11757783_s_at) / RFU DDX43 (11728927_at) / Fold change /veh DDX43 (11728927_at) / RFU KRT8 (11758188_x_at) / Fold change /veh KRT8 (11758188_x_at) / RFU NKD1 (11759106_at) / Fold change /veh NKD1 (11759106_at) / RFU SRD5A1 (11742802_a_at) / Fold change /veh SRD5A1 (11742802_a_at) / RFU TPSAB1 /// TPSB2 (11721975_s_at) / Fold change /veh TPSAB1 /// TPSB2 (11721975_s_at) / RFU GSTM3 (11746129_a_at) / Fold change /veh GSTM3 (11746129_a_at) / RFU IL23R (11737362_x_at) / Fold change /veh IL23R (11737362_x_at) / RFU TMEM51 (11727254_a_at) / Fold change /veh TMEM51 (11727254_a_at) / RFU PIWIL2 (11732686_x_at) / Fold change /veh PIWIL2 (11732686_x_at) / RFU ORM1 (11744905_x_at) / Fold change /veh ORM1 (11744905_x_at) / RFU CCDC152 (11743942_at) / Fold change /veh CCDC152 (11743942_at) / RFU ECM1 (11717891_a_at) / Fold change /veh ECM1 (11717891_a_at) / RFU IL23R (11748794_a_at) / Fold change /veh IL23R (11748794_a_at) / RFU TNFAIP8L3 (11732012_x_at) / Fold change /veh TNFAIP8L3 (11732012_x_at) / RFU MBOAT4 (11741988_at) / Fold change /veh MBOAT4 (11741988_at) / RFU 11764193_at / Fold change /veh 11764193_at / RFU TMEM53 (11763286_at) / Fold change /veh TMEM53 (11763286_at) / RFU MAGEB2 (11727129_at) / Fold change /veh MAGEB2 (11727129_at) / RFU TMEM200A (11744735_a_at) / Fold change /veh TMEM200A (11744735_a_at) / RFU CCDC152 (11751479_a_at) / Fold change /veh CCDC152 (11751479_a_at) / RFU FAM211A (11726209_a_at) / Fold change /veh FAM211A (11726209_a_at) / RFU RGS16 (11746705_a_at) / Fold change /veh RGS16 (11746705_a_at) / RFU VCAN (11755009_s_at) / Fold change /veh VCAN (11755009_s_at) / RFU RHOB (11743442_s_at) / Fold change /veh RHOB (11743442_s_at) / RFU RGS16 (11720943_a_at) / Fold change /veh RGS16 (11720943_a_at) / RFU RGS16 (11720944_at) / Fold change /veh RGS16 (11720944_at) / RFU, VPS4B / Fold change vs veh, VPS4B / RFU, CREB1 / Fold change vs veh, CREB1 / RFU, DNAJC13 / Fold change vs veh, DNAJC13 / RFU, GNAQ / Fold change vs veh, GNAQ / RFU, CDK5R1 / Fold change vs veh, CDK5R1 / RFU, ZRANB3 / Fold change vs veh, ZRANB3 / RFU, CUL4A / Fold change vs veh, CUL4A / RFU, CCNY / Fold change vs veh, CCNY / RFU, UFL1 / Fold change vs veh, UFL1 / RFU, COG3 / Fold change vs veh, COG3 / RFU, DIAPH2 / Fold change vs veh, DIAPH2 / RFU, SKA2 / Fold change vs veh, SKA2 / RFU, AFF3 / Fold change vs veh, AFF3 / RFU, LMF1 / Fold change vs veh, LMF1 / RFU, IPO11 / Fold change vs veh, IPO11 / RFU, DFFB / Fold change vs veh, DFFB / RFU, FOXP1 / Fold change vs veh, FOXP1 / RFU, CARD8 / Fold change vs veh, CARD8 / RFU, STRN3 / Fold change vs veh, STRN3 / RFU, ADK / Fold change vs veh, ADK / RFU, RASSF2 / Fold change vs veh, RASSF2 / RFU, WIPF1 / Fold change vs veh, WIPF1 / RFU, LARP1B / Fold change vs veh, LARP1B / RFU, RASA1 / Fold change vs veh, RASA1 / RFU, RB1 / Fold change vs veh, RB1 / RFU, PPFIA1 / Fold change vs veh, PPFIA1 / RFU, MAT2A / Fold change vs veh, MAT2A / RFU, CCT5 / Fold change vs veh, CCT5 / RFU, WDR92 / Fold change vs veh, WDR92 / RFU, CUX1 / Fold change vs veh, CUX1 / RFU, TTC7A / Fold change vs veh, TTC7A / RFU, TMEM135 / Fold change vs veh, TMEM135 / RFU, DEPTOR / Fold change vs veh, DEPTOR / RFU, CPM / Fold change vs veh, CPM / RFU, DNAJB6 / Fold change vs veh, DNAJB6 / RFU, CACNA2D3 / Fold change vs veh, CACNA2D3 / RFU, DTX4 / Fold change vs veh, DTX4 / RFU, TFCP2 / Fold change vs veh, TFCP2 / RFU, GMCL1 /// GMCL1P1 / Fold change vs veh, GMCL1 /// GMCL1P1 / RFU, AEBP2 / Fold change vs veh, AEBP2 / RFU, SNHG1 /// SNORD22 /// SNORD25 /// SNORD26 /// SNORD27 /// SNORD28 /// SNORD29 /// SNORD31 / Fold change vs veh, SNHG1 /// SNORD22 /// SNORD25 /// SNORD26 /// SNORD27 /// SNORD28 /// SNORD29 /// SNORD31 / Fold change (Aza/veh), C12orf56 (ProbeSet 11735607_a_at) / Fold change (ACY-1035/veh), C12orf56 (ProbeSet 11735607_a_at) / Fold change (Aza/veh), FGFR1OP (ProbeSet 11751329_s_at) / Fold change (ACY-1035/veh), FGFR1OP (ProbeSet 11751329_s_at) / Fold change (Aza/veh), VPS36 (ProbeSet 11739960_a_at) / Fold change (ACY-1035/veh), VPS36 (ProbeSet 11739960_a_at) / RFU SYPL1 (11715823_x_at) / Fold change /veh SYPL1 (11715823_x_at) / RFU IGFBP7 (11715501_s_at) / Fold change /veh IGFBP7 (11715501_s_at) / RFU REEP3 (11722064_at) / Fold change /veh REEP3 (11722064_at) / RFU IGLL1 (11728026_x_at) / Fold change /veh IGLL1 (11728026_x_at): dose or concentration left out as unconfirmed
Conditions: MV-4-11 cells, 48 hours

Nc1ncn([C@@H]2O[C@H](CO)[C@@H](O)[C@H]2O)c(=O)n1 [azacitidine]
RFU ABCC12 (11746883_a_at): 6.52 RFU

— article PMC5218480 (PLoS ONE, 2017)
